Blank lines part the entries; values can stand above or below the molecule they belong to.
Experiments:
[1] = target: T1, Tph-1 (Mus musculus, UniProt P17532); assay: EAE mouse model with Tph-1 inhibition (NAD+ plus p-Chlorophenylalanine); type: in vivo
T1 construct: from tissue; host or cells: whole animal: C57BL/6 mice (Charles River Laboratories)
T1 sequence (P17532 1-447): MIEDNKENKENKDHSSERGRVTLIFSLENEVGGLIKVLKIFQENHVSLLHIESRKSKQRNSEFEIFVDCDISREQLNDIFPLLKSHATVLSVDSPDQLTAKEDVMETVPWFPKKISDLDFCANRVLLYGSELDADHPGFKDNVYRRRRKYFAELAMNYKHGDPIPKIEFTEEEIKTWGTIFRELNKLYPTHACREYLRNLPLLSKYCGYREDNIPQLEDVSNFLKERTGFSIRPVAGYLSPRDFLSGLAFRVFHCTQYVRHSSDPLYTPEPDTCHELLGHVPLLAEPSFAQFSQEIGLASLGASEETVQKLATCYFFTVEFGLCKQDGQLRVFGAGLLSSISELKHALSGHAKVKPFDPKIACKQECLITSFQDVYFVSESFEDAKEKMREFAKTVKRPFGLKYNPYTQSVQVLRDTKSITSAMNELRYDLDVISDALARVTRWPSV
Experimental: Tph-1 has been very recently shown to prevent from allograft rejection and EAE^45. Thus, it was tested, in vivo, whether NAD^+ protects from EAE and regulates CD4^+ T cell differentiation through Tph1. Mice were subjected to EAE and were treated daily with a placebo solution (PBS) or NAD^+ in addition to p-Chlorophenylalanine, a specific inhibitor of Tph-1.
Onsets of clinical signs of EAE in mice injected with MOG peptide and a placebo solution appeared after 11 days (FIG. 6A). […] However, when NAD^+ treated mice received simultaneously a treatment with a Tph-1 inhibitor, onset of clinical signs of EAE appeared after 11 days.
EAE was induced in 10-week-old C57BL/6 mice using Hooke Labs EAE induction kit (EK-2110) according to manufacturer's instructions. […] For NAD^+ treatment mice received a daily intraperitoneal injection (60 mg in 100 μl in PBS) or a placebo solution (100 μl of PBS) at the same day than MOG immunization. Mice were sacrificed at day 18 and single cell suspension was obtained from spleens for flow cytometry analysis. To test whether NAD^+ was able to reverse the development of EAE, another group of mice was treated daily (for a period of 10 days) with NAD^+ (60 mg/mouse) or a placebo solution 15 days after MOG immunization when mice were scored 3 with a bilateral hindlimb paresis. EAE disease progression was monitored. For Tph-1 or CA3 inhibition, mice received daily intraperitoneal injections (simultaneous to NAD^−) of p-Chlorophenylalanine (1 ml of a 10 mM solution stock, catalog number 0938, Tocris Bioscience) or N-[[[(1S)-1-Carboxy-3-methylbutyl]amino]carbonyl]-L-glutamic acid (100 μl of a 100 mM solution stock, ZJ 43 catalog number 2675,Tocris Bioscience), respectively.

[2] = system: CD4+CD25+ nTregs; assay: IL-17A secretion by nTregs cultured with NAD+ and purinergic receptor antagonists; settings: for reduction of IL-17A cytokine production induced by NAD+: both selective antagonists (5-BDBD and A804598) added; for production of IL-17A cytokine induced by NAD+: nTregs cultured with NAD+ and the selective antagonist (5-BDBD: P2RX4; A804598: P2RX7; MRS 2279: P2RY1), ELISA
[3] = NAD+ plus Tph-1 inhibition, flow cytometry
[4] = NAD+ treatment followed by Tph-1 inhibition, spleen, flow cytometry

SMILES: N[C@@H](Cc1ccc(Cl)cc1)C(=O)O (racemic) [p-Chlorophenylalanine]
clinical observation ([1]; EAE mice treated with NAD+ and Tph-1 inhibitor): hindlimb paralysis and became rapidly lethargic | clinical signs of EAE vs MOG + placebo group ([1]; NAD+ and p-Chlorophenylalanine, 13 days after MOG immunization): more severe clinical signs of EAE | CD4+CD25+Foxp3+ cell frequencies [1, 3]: dramatic decrease | IL-17A+IL-23R+ cells [1, 3]: significant increase | onset of clinical signs of EAE ([1]; NAD+ treated mice receiving Tph-1 inhibitor simultaneously, after MOG immunization): 11 days | IL-10/IFNγ producing cells [1, 4]: reduced systemically | IL-17A producing cells [1, 4]: reduced systemically

SMILES: O=C1CN=C(c2cccc(Br)c2)c2oc3ccccc3c2N1 [5-BDBD]
reduction of IL-17A cytokine production induced by NAD+ [2]: complete | production of IL-17A cytokine induced by NAD+ [2]: dramatic reduced production

reduction of IL-17A cytokine production induced by NAD+ [2]: complete | production of IL-17A cytokine induced by NAD+ [2]: dramatic reduced production
SMILES: C[C@H](NC(=NC#N)Nc1cccc2ncccc12)c1ccccc1 [A804598, 2-cyano-1-[(1S)-1-phenylethyl]-3-quinolin-5-ylguanidine]

production of IL-17A cytokine induced by NAD+ [2]: did not change
SMILES: CNc1nc(Cl)nc2c1ncn2[C@H]1C[C@H](OP(=O)(O)O)[C@]2(COP(=O)(O)O)C[C@H]12 [MRS 2279, 2-Chloro N(6)-methyl-(N)-methanocarba-2′-deoxyadenosine-3′,5′-bisphosphate]

— patent US20160067272A1, “METHODS FOR TREATING IMMUNE DISEASES” (priority 2013, published 2016)
